Read-outs that look alike come from different tables or passages of the source.

Holding throughout (assay): biochemical
Common to all, as to design: Thermal shift (DSF, SYPRO Orange) Tm shift of recombinant kinase domains at 10 uM compound

Test [1] has as its target BRD4 (Homo sapiens, UniProt O60885).
In test [2] the target is T1, CHK2 (Homo sapiens, UniProt O96017).
T1 construct: gene CHEK2

Test [3] addresses SRPK1 (Homo sapiens, UniProt Q96SB4).
Test [4] addresses T2, MAPK15 (Homo sapiens, UniProt Q8TD08).
T2 sequence (Q8TD08 1-544): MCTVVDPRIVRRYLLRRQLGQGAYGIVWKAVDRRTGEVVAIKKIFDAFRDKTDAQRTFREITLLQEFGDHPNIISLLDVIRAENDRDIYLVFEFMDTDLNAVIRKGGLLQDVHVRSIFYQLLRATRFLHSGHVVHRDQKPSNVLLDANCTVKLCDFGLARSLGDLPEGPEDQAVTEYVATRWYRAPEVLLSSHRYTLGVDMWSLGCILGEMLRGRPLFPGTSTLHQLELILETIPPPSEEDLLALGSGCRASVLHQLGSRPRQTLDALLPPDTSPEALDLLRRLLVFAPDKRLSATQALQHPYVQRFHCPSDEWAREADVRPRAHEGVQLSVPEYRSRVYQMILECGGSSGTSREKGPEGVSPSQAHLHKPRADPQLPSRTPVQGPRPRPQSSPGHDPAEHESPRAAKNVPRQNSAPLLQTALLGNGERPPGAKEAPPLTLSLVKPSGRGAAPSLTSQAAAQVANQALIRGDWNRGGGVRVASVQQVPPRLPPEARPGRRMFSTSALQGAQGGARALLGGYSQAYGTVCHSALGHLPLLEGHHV

Test [5] has as its target MAPKAPK2 (Homo sapiens, UniProt P49137).
In test [6] the target is T3, MARK4 (Homo sapiens, UniProt Q96L34).
T3 sequence (Q96L34 1-752): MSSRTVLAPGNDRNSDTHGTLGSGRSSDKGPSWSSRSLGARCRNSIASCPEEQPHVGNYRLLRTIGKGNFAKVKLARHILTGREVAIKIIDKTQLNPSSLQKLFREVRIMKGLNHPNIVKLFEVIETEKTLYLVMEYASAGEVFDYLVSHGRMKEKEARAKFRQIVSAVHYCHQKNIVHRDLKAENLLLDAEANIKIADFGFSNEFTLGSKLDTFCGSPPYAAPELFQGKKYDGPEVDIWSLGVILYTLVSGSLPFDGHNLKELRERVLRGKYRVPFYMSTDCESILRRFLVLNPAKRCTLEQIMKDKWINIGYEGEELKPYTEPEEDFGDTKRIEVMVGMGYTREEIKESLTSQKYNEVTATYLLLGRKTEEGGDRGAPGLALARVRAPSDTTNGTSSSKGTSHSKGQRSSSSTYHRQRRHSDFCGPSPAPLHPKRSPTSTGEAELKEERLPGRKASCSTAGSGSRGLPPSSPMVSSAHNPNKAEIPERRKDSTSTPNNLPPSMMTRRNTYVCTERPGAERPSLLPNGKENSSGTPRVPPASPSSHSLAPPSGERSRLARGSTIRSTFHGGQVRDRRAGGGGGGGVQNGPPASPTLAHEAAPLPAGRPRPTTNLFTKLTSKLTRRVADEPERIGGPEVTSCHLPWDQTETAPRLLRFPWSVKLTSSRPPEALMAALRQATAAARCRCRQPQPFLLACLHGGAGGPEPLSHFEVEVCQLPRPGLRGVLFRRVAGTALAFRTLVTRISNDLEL

The target of test [7] is CSNK1E (Homo sapiens, UniProt P49674).
The target in test [8] is T4, DYRK2 (Homo sapiens, UniProt Q92630).
T4 sequence (Q92630 1-601): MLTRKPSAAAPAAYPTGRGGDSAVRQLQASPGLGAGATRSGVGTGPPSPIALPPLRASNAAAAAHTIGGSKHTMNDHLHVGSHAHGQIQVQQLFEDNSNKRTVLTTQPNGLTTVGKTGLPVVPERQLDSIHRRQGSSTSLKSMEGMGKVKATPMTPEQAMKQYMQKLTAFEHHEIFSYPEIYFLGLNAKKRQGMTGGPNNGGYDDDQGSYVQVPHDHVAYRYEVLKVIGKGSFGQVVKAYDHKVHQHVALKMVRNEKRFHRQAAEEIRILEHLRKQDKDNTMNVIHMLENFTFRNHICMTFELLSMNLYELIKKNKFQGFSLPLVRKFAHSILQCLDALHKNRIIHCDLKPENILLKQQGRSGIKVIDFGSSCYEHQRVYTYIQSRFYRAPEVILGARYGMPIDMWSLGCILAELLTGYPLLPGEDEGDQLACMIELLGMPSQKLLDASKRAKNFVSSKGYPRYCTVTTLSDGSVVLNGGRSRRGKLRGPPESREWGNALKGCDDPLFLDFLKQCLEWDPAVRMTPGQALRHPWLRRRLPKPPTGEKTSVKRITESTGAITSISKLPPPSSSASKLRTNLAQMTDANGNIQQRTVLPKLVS

MAPKAPK2, sequence (P49137 whole entry): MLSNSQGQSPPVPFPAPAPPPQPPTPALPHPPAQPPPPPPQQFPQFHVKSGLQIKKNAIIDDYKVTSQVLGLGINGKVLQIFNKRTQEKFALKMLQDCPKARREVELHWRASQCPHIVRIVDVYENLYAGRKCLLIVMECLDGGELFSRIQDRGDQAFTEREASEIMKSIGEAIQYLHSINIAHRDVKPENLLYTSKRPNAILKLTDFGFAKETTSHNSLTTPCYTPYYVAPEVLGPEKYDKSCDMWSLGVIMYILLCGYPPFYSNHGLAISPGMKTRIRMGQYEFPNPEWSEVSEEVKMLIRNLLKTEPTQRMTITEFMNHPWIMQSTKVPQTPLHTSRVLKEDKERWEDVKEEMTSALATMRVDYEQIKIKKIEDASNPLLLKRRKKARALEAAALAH
T1 sequence (O96017 whole entry): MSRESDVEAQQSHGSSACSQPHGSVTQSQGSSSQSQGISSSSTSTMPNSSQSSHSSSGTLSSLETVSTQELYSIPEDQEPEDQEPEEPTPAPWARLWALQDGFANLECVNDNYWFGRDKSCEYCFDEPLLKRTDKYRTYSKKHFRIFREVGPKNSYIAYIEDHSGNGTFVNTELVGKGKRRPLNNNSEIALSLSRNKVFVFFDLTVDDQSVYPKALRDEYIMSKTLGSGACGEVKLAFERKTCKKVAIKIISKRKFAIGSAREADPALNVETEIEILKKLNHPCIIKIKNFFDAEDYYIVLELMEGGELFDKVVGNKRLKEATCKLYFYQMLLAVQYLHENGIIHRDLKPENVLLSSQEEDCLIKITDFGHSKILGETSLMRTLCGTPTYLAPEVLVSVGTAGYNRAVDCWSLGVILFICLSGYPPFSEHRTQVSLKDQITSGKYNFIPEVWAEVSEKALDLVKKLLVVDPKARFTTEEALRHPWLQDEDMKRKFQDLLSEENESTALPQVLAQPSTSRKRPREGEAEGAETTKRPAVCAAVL
CSNK1E, sequence (P49674 whole entry): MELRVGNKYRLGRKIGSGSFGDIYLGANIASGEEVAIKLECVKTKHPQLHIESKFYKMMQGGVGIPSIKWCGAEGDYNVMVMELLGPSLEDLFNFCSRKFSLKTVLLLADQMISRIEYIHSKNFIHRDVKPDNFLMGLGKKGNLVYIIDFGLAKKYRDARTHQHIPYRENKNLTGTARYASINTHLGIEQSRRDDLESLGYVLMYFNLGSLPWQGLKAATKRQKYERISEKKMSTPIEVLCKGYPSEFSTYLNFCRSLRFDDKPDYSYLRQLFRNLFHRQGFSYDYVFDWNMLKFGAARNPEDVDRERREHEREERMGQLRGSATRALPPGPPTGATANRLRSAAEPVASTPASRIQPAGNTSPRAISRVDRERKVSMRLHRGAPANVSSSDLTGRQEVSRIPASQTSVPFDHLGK
SRPK1, sequence (Q96SB4 whole entry): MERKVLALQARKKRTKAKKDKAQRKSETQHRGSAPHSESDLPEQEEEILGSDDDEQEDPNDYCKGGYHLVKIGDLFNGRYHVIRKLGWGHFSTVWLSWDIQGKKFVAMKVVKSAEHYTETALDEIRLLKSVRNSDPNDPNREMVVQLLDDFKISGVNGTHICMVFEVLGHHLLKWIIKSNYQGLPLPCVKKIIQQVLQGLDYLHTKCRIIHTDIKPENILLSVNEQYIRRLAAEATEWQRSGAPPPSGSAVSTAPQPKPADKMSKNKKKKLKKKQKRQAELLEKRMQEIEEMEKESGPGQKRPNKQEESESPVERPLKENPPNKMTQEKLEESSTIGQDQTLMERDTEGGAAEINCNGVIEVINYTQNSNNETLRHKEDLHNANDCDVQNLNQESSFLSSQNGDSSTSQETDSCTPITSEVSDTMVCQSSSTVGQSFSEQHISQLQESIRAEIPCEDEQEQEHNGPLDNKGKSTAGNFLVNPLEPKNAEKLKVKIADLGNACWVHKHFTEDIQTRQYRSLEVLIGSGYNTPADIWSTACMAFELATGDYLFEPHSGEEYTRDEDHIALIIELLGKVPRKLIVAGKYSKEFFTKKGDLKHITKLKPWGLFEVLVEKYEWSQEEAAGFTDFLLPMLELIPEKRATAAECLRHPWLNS

With `COc1ccc(OC(C)C)cc1Nc1cncc(-c2ccc(C(=O)O)cc2)n1` [7c], the ΔTm at 10 µM in test [1] (read-out: 7c) is 1 °C; in test [2] (read-out: 7c), 3 °C; in test [3] (read-out: 7c) it was 3 °C; in test [4] (read-out: 7c), 10 °C; in test [5] (read-out: 7c), 0 °C; in test [6] (read-out: 7c), 0 °C. The ΔTm at 10 µM in test [7] (read-out: 7c) came out at 1 °C; in test [8] (read-out: 7c), 9 °C.
Regarding `CC(C)Oc1ccc2ccn(-c3cncc(-c4ccc(C(=O)O)cc4)n3)c2c1` [6c], the ΔTm at 10 µM in test [1] (read-out: 6c) was 2 °C; in test [2] (read-out: 6c), 4 °C; in test [3] (read-out: 6c), 6 °C; in test [4] (read-out: 6c), 15 °C; in test [5] (read-out: 6c), -1 °C; in test [6] (read-out: 6c) it was 1 °C. The ΔTm at 10 µM in test [7] (read-out: 6c) worked out at 3 °C; in test [8] (read-out: 6c) it was 11 °C.
For `CC(C)Nc1ccc2cnn(-c3cncc(-c4ccc(C(=O)O)cc4)n3)c2c1` [compound 2, 2], the ΔTm at 10 µM in test [1] (read-out: 2) was 2 °C; in test [2] (read-out: 2), 6 °C; in test [3] (read-out: 2), 6 °C; in test [4] (read-out: 2), 12 °C; in test [5] (read-out: 2), 0 °C; in test [6] (read-out: 2), 1 °C. Also, the ΔTm at 10 µM in test [7] (read-out: 2) was 2 °C; in test [8] (read-out: 2), 12 °C.

The values are drawn from doi:10.1101/2023.12.04.569845, “Identification of 4-(6-((2-methoxyphenyl)amino)pyrazin-2-yl)benzoic acids as CSNK2A inhibitors with antiviral activity and improved selectivity over PIM3” (bioRxiv, 2023).
